Consider five substances from PMC5309247, “A Role of Corazonin Receptor in Larval-Pupal Transition and Pupariation in the Oriental Fruit Fly Bactrocera dorsalis (Hendel) (Diptera: Tephritidae)” (Frontiers in Physiology, 2017).

Read-outs that look alike come from different tables or passages of the source.

One assay concerns DmCrzR. The following applies: ref Cazzamali et al., [2002], Park et al., [2002b], cited from earlier work. An excerpt:
(§1) The CrzR is a member of the GPCR family having seven TM domains. Since the first CrzR was identified in Drosophila, homologous receptors have been predicted in several genome databases (Sha et al., [2012]).

Assay [1] relates to head-ligated B. dorsalis larvae. Kind of assay: Rescue of larval-pupal transition by peptide injection in head-ligated larvae. The following applies: 0.3 pmol in 300 nL, 24 h post-injection; for rescue of pupariation in head-ligated larvae: in words. It is filed as in vivo, Bactrocera dorsalis. How it is done: The peptides of Crz and ETH of B. dorsalis were synthesized by Genescript (Nanjing, China), and the adipokinetic hormone (AKH) peptide of Bombyx mori (BmAKH) was a gift from Dr. Naiming Zhou (Zhejing University, China; Yang et al., [2013]). The amino acid (aa) sequences for Crz, ETH and AKH were added in Table 1. Plasmids were prepared using the MIDIprep kit as purchased from Qiagen (Valencia, CA). The reagents for cell culture and GPCR assay were purchased from Gibco cell culture at Life Technologies (Grand Island, NY), including fetal bovine serum, DMEM/F12 medium, fungizone, penicillin/streptomycin, and coelenterazine. The transfection reagent (TransIt) was purchased from Mirus Bio (Madison, WI).
The experimental setup with head-ligated 2-day-old 3rd-instar larvae was based on a previous study (Kim et al., [2004]). […] Upon head-ligation, a series of larvae was injected with Crz (0.3 pmol in 300 nL) or ETH (0.3 pmol in 300 nL). Upon injection larvae were kept on an artificial diet as described above, and we scored pupal development at 24 h post-injection. Per treatment, we used 20 larvae and three biological replicates were conducted. Typical phenotype effects were captured with a Leica M205A stereomicroscope with a camera (Leica Microsystems, Wetzlar, Germany).

In another assay the test system is BdCrzR. Kind of assay: Ca2+ mobilization luminescence (aequorin) assay in BdCrzR-expressing CHO cells. The format is cell-based, Bactrocera dorsalis. The following applies: for Ca2+ response of BdCrzR-expressing CHO cells: CHO cells with aequorin and Gα16, 10-fold serial dilution of peptide. As to the method: The ORF for BdCrzR was inserted into the expression vector pcDNA3.1 (+). The correct clone of pcDNA3.1-BdCrzR was confirmed by sequencing (Invitrogen). Chinese Hamster Ovary (CHO) cells, supplemented with aequorin, and Gα16 subunit, were employed for the heterologous expression. The methods for the transfection and the Ca^2+ mobilization assay were performed as previously described (Jiang et al., [2014]). Briefly, cells were transfected with the pcDNA3.1(+)-BdCrzR using TransIT-LT1 transfection reagent (Mirus Bio). At 30 h after the transfection, the cells were collected and incubated with the coelenterazine (Invitrogen) for 2.5 h prior to the functional assay. The cells transfected with the empty pcDNA3.1 vector, were used as a negative control.
The luminescence assay was performed by measuring the intracellular Ca^2+ mobilization of the transfected CHO cells. A 10-fold serial dilution of the peptides (BdCrz and BmAKH) was applied to the cells. The luminescence caused by the intracellular calcium mobilization was measured within 20 s in every half-second intervals by a TriStar^2 LB 942 Multimode Reader (Berthold Technologies, Bad Wildbad, Germany; Jiang et al., [2013], [2014]). The lowest concentration of BdCrz ligand showing the maximum activation of the receptor, was selected for luminescence normalization. Based on that, a concentration-response curve was calculated for BdCrz by logistic fitting in Origin 8.6 (OriginLab Corporation, Northampton, MA). All experiments were conducted with three biological replicates.
(Calcium flux is commonly read through the fluorescence of an indicator in the cells.)

The next assay relates to Schistocerca americana. The following applies: ref Veenstra, [1991]; cited from earlier work. An excerpt: (§2) Neuropeptides play a central role in regulating numerous vital physiological systems and behavioral events in diverse insects. The multiple functions of insect neuropeptides make them a prime practical potential target in the development of novel insect control agents (Boonen et al., [2009]).

The test system of the next assay is MsCrzR. The settings on record: ref Kim et al., [2004], cited from earlier work.
Excerpt: as §1

Another assay concerns Bombyx mori larvae. The settings on record: injection into larvae; ref Tanaka et al., [2002]; cited from earlier work. An excerpt: Crz is highly conserved with respect to spatial expression pattern, but no clear pattern of function has emerged.
The test system of a further assay is Periplaneta americana. The settings on record: ref Veenstra, [1989]; cited from earlier work.
Excerpt: as §2

A word on the EC50: it is the concentration needed to bring the measured effect to its halfway point. For “DmCrz: Corazonin of Drosophila melanogaster (NP_524350.1) (QTFQYSRGWTN; Corazonin; UniProt Q26377 20-30, looked up)”, the concentration for a half-maximal effect (EC50) was 18 nM in the assay on DmCrzR (DmCrzR-transfected CHO cells) and 1 nM with DmCrzR (Xenopus oocyte cells).
With “pAsn-Glu-Ser-Pro-Gly-Phe-Phe-Leu-Lys-Ile-Thr-Lys-Asn-Val-Pro-Arg-Leu-NH2 [BdETH, ecdysis-triggering hormone (ETH) of B. dorsalis, synthesized by Genescript, reference compound]”, the “rescue of pupariation in head-ligated larvae” value in assay [1] is given as “the same result was also observed”.
“pCys-Glu-Leu-Thr-Phe-Ser-Pro-Asp-Thr-NH2 [BmAKH, adipokinetic hormone (AKH) peptide of Bombyx mori, reference compound]”: the “Ca2+ response of BdCrzR-expressing CHO cells” value in the assay on BdCrzR is “no responses”; with BdCrzR (listed as AKH), “did not respond”.
As to “pGln-Thr-Phe-Gln-Tyr-Ser-His-Gly-Trp-Thr-Asn-NH2 [[His^7]-Crz]”, the dark-inducing activity result in the assay on Schistocerca americana is recorded as “dark-inducing peptide”.
For the substance “pGln-Thr-Phe-Gln-Tyr-Ser-His-Gly-Trp-Thr-Ser-NH2 [BdCrz, mature corazonin of Bactrocera dorsalis, …amide, synthesized by Genescript]”, the EC50 with BdCrzR (CHO cells with aequorin and Gα16, transiently expressing BdCrzR, Ca2+ luminescence within 20 s, logistic fit, three independent measurements, each three replicates) is 52.5 nM; with MsCrzR (CHO) it was 0.2 nM; in the assay with MsCrzR (Xenopus oocyte-expression system), 0.075 nM. Also, in the assay on BdCrzR, the “Ca2+ response of BdCrzR-expressing CHO cells” value is on record as “concentration-dependent Ca^2+ responses”. Moreover, in assay [1] (20 larvae per treatment, three biological replicates), the “head-ligated larvae that made the transition from the larval to the pupal stage” value is recorded as 97%. The “rescue of pupariation in head-ligated larvae” value in assay [1] is on record as “could rescue the effects”. In addition, the pupal development result in the assay with Bombyx mori larvae is “prolonged pupal development”. For the same substance, the silk spinning rate result with Bombyx mori larvae is “reduced the silk spinning rate”. Also, the cardioacceleratory activity entry in the assay on Periplaneta americana was “cardioacceleratory peptide”.
